# Measured values reported in patent publication US12583884B2, “3beta-(benzyloxy)-17alpha-methyl-pregn-5-en-20-one for use in the treatment of cognitive disorders” (AELIS FARMA, priority 2018, dated 2026).
# Read-outs that look alike come from different tables or passages of the source.
# Legend:
# [1] = tested on: K+ channels KV; test: CEREP binding profile: KV; conditions: 10 μM
# Text: (§1) The CEREP High-throughput profile consists of a broad collection of 80 transmembrane and soluble receptors, ion channels and G-Protein coupled receptors.
# [2] = target: Melanocortin MC4 (Homo sapiens, UniProt P32245); test: CEREP binding profile: MC4
# Text: as §1
# [3] = target: Muscarinic M4 (Homo sapiens, UniProt P08173); test: CEREP binding profile: M4
# Text: as §1
# [4] = target: T1, Cannabinoid CB1 (Homo sapiens, UniProt P21554); test: CEREP binding profile: CB1
# T1 construct: CEREP
# Text: as §1
# [5] = target: Neurotensin NTS1 (NT1) (Homo sapiens, UniProt P30989); test: CEREP binding profile: NTS1
# Text: as §1
# [6] = target: T2, Transporters Norepinephrine (Homo sapiens, UniProt P23975); test: CEREP binding profile: norepinephrine transporter
# T2 construct: CEREP (contract panel)
# Text: as §1
# [7] = target: T3, Vasopressin V1a (Homo sapiens, UniProt P37288); test: CEREP binding profile: V1a
# T3 construct: CEREP (contract panel)
# Text: as §1
# [8] = target: Histamine H2 (Homo sapiens, UniProt P25021); test: CEREP binding profile: H2
# Text: as §1
# [9] = target: Opioid and opioid-like delta2 (DOP) (Homo sapiens, UniProt P41143); test: CEREP binding profile: delta2; conditions: 10 μM
# Text: as §1
# [10] = target: Neurokinin NK3 (Homo sapiens, UniProt P29371); test: CEREP binding profile: NK3
# Text: as §1
# [11] = tested on: Sigma sigma; test: CEREP binding profile: sigma; conditions: 10 μM
# Text: as §1
# [12] = target: Opioid and opioid-like NOP (ORL1) (Homo sapiens, UniProt P41146); test: CEREP binding profile: NOP; conditions: 10 μM
# Text: as §1
# [13] = target: T4, Adrenergic beta1 (Homo sapiens, UniProt P08588); test: CEREP binding profile: beta1
# T4 construct: CEREP
# Text: as §1
# [14] = target: T5, Serotonin 5-HT5a (Homo sapiens, UniProt P47898); test: CEREP binding profile: 5-HT5a
# T5 construct: CEREP (contract panel)
# Text: as §1
# [15] = target: T6, Serotonin 5-HT1B (Rattus norvegicus, UniProt P28564); test: CEREP binding profile: 5-HT1B
# T6 construct: CEREP (contract panel)
# Text: as §1
# [16] = target: T7, Steroid nuclear receptors PR (Homo sapiens, UniProt P06401); test: Binding: PR
# T7 construct: CEREP
# T7 sequence (P06401 1-933): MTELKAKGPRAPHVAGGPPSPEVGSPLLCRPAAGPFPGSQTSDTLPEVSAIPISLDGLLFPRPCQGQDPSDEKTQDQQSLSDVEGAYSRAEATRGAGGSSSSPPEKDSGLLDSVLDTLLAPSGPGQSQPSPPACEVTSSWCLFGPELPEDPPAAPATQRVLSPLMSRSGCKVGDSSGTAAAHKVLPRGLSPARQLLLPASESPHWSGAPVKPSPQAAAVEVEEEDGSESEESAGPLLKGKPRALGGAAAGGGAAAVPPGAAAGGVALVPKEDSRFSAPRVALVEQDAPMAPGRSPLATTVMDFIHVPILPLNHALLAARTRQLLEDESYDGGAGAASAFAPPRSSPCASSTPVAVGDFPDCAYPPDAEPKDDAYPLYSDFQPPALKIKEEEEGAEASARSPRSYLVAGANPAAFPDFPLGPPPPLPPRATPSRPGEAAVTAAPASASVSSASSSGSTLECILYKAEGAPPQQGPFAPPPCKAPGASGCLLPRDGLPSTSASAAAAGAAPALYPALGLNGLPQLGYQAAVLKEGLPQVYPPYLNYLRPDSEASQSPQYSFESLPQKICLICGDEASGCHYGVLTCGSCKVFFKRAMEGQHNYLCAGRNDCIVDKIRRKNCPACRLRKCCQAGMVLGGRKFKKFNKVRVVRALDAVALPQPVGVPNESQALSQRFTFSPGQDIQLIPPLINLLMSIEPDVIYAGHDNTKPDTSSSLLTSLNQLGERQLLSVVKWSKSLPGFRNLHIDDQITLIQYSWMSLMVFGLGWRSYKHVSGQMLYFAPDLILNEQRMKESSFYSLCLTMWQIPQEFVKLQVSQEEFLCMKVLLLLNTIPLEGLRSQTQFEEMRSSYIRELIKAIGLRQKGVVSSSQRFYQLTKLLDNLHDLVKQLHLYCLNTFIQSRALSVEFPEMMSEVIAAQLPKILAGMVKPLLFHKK
# Text: as §1
# [17] = tested on: Purinergic P2Y; test: CEREP binding profile: P2Y; conditions: 10 μM
# Text: as §1
# [18] = tested on: GABA BZD (central); test: CEREP binding profile: BZD (central); conditions: 10 μM
# Text: as §1
# [19] = target: Neuropetide Y Y2 (Homo sapiens, UniProt P49146); test: CEREP binding profile: Y2
# Text: as §1
# [20] = target: T8, Serotonin 5-HT7 (Homo sapiens, UniProt P34969); test: CEREP binding profile: 5-HT7
# T8 construct: CEREP (contract panel)
# Text: as §1
# [21] = target: Prostanoid EP2 (Homo sapiens, UniProt P43116); test: CEREP binding profile: EP2
# Text: as §1
# [22] = target: T9, Non-steroid nuclear receptors PPAR gamma (Homo sapiens, UniProt P37231); test: CEREP binding profile: PPAR gamma
# T9 construct: CEREP
# Text: as §1
# [23] = tested on: Cytokines TNF-alpha; test: CEREP binding profile: TNF-alpha; conditions: 10 μM
# Text: as §1
# [24] = target: T10, Bradykinin B2 (Homo sapiens, UniProt P30411); test: CEREP binding profile: B2
# T10 construct: CEREP
# Text: as §1
# [25] = target: T11, Serotonin 5-HT1A (Homo sapiens, UniProt P08908); test: CEREP binding profile: 5-HT1A
# T11 construct: CEREP (contract panel)
# Text: as §1
# [26] = target: Muscarinic M3 (Homo sapiens, UniProt P20309); test: CEREP binding profile: M3
# Text: as §1
# [27] = target: T12, Transporters Serotonin 5-HT trans. (Homo sapiens, UniProt P31645); test: CEREP binding profile: 5-HT trans.
# T12 construct: CEREP (contract panel)
# Text: as §1
# [28] = target: T13, Adenosine A3 (Homo sapiens, UniProt P0DMS8); test: CEREP binding profile: A3
# T13 construct: CEREP
# Text: as §1
# [29] = target: Neuropetide Y N1 (Homo sapiens, UniProt P25929); test: CEREP binding profile: N1
# Text: as §1
# [30] = target: T14, Adenosine A1 (Homo sapiens, UniProt P30542); test: CEREP binding profile: A1
# T14 construct: CEREP
# Text: as §1
# Muscarinic M4, sequence (P08173 whole entry): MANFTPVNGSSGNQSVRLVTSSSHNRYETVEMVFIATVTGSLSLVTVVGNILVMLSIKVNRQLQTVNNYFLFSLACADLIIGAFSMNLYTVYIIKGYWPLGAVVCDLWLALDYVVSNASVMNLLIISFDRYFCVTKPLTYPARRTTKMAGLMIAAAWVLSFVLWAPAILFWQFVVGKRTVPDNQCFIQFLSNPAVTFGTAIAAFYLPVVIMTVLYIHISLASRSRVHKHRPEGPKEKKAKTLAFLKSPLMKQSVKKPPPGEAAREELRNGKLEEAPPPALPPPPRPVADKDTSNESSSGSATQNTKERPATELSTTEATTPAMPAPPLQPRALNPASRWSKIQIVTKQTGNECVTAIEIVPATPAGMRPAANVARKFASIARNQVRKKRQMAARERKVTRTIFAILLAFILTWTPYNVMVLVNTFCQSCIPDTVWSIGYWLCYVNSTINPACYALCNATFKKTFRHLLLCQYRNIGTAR
# T1 sequence (P21554 whole entry): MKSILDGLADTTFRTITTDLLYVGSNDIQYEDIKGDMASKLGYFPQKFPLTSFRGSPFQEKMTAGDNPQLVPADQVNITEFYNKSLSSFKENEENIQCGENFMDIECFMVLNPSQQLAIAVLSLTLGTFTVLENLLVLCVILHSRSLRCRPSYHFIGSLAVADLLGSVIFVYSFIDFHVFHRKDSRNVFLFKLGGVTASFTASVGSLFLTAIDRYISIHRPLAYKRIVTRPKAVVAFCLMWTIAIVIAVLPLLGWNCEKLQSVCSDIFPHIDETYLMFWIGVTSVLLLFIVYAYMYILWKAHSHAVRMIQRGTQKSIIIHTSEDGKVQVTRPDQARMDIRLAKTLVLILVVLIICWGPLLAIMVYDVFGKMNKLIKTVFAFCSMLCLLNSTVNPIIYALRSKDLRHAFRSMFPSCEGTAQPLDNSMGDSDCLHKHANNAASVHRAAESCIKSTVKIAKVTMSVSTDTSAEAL
# T8 sequence (P34969 whole entry): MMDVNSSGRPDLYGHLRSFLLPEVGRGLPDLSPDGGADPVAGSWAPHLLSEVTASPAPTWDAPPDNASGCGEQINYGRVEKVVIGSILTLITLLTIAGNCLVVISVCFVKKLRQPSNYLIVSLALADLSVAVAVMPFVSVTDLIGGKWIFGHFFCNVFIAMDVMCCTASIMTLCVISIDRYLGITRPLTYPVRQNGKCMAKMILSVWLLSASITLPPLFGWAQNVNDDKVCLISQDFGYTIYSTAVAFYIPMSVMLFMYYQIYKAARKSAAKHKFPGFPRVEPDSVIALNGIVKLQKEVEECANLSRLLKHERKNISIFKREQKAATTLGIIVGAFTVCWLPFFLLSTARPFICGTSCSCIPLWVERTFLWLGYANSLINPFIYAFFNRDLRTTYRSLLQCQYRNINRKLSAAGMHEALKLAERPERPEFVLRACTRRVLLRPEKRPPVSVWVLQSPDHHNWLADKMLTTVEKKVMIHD
# Muscarinic M3, sequence (P20309 whole entry): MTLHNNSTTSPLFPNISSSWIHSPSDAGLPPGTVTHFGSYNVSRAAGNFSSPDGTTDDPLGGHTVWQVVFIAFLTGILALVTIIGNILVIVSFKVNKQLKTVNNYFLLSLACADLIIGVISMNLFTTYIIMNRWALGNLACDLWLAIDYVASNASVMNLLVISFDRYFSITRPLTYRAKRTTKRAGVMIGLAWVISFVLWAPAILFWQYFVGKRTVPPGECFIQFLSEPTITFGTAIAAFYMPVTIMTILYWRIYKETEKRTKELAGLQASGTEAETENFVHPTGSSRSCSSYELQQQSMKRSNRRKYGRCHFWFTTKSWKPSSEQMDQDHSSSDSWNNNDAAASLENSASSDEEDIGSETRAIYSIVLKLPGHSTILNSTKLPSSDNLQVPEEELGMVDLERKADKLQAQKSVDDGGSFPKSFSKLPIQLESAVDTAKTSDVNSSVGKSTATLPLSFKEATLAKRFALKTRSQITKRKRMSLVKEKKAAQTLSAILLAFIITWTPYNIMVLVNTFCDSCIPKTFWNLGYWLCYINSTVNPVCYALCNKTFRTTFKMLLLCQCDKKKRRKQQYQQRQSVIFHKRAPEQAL
# Melanocortin MC4, sequence (P32245 whole entry): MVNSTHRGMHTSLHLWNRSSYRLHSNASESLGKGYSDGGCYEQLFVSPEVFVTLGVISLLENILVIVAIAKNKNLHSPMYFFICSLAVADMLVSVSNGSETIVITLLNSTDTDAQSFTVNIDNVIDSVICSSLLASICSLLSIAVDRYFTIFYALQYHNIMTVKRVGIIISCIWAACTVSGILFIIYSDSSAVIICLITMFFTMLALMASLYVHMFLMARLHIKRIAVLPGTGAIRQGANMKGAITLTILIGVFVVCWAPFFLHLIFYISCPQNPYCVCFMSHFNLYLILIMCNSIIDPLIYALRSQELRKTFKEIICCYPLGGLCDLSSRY
# Opioid and opioid-like delta2 (DOP), sequence (P41143 whole entry): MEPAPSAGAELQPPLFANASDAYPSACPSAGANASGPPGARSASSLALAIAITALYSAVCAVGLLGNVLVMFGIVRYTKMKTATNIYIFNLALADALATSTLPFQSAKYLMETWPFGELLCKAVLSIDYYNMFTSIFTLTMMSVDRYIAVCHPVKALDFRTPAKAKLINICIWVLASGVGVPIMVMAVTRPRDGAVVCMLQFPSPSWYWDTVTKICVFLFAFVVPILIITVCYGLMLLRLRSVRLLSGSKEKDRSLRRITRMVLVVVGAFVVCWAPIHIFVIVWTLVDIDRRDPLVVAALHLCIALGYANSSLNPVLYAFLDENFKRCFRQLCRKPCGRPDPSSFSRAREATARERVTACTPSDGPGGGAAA
# T9 sequence (P37231 whole entry): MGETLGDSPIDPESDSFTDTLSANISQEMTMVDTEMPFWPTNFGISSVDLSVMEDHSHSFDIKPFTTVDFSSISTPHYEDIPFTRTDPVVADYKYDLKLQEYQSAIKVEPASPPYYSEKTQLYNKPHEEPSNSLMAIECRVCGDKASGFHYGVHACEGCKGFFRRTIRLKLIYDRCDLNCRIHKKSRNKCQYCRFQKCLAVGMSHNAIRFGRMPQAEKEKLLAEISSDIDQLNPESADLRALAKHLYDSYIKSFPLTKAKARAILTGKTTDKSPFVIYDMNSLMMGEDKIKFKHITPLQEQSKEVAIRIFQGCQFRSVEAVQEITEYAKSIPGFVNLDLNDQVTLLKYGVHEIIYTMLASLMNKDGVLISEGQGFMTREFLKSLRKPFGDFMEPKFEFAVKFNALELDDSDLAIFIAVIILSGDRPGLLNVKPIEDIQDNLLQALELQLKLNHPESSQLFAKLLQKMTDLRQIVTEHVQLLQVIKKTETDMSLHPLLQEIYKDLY
# Opioid and opioid-like NOP (ORL1), sequence (P41146 whole entry, species assumed): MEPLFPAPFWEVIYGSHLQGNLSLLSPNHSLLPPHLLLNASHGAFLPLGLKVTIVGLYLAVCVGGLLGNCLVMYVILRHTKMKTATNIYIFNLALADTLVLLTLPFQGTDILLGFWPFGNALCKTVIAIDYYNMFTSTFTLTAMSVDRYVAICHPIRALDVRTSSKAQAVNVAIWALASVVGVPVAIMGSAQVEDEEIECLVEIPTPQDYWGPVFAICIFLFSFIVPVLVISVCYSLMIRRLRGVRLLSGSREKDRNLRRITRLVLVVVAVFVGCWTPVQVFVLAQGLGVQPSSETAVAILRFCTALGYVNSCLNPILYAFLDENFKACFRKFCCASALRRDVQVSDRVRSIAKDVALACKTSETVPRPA
# Neuropetide Y Y2, sequence (P49146 whole entry): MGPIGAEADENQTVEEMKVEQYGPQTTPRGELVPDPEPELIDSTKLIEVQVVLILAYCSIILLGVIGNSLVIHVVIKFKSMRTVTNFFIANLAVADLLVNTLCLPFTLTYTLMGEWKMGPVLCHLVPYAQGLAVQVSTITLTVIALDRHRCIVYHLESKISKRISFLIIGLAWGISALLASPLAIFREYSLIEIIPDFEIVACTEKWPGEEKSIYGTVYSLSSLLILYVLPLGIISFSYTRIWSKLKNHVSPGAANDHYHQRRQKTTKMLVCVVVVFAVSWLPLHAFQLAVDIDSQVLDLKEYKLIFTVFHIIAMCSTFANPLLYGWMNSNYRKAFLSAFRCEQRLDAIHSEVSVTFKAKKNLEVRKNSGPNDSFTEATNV
# Prostanoid EP2, sequence (P43116 whole entry): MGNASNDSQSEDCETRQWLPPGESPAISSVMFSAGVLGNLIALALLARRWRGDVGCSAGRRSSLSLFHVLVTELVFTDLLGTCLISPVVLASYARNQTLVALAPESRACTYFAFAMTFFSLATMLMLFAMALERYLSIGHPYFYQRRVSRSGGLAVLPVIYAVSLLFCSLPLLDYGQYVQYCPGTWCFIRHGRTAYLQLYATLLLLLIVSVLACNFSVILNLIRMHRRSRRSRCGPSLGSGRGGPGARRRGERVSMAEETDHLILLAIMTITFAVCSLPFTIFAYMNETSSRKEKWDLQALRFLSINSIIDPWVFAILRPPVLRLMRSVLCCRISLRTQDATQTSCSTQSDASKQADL
# T4 sequence (P08588 whole entry): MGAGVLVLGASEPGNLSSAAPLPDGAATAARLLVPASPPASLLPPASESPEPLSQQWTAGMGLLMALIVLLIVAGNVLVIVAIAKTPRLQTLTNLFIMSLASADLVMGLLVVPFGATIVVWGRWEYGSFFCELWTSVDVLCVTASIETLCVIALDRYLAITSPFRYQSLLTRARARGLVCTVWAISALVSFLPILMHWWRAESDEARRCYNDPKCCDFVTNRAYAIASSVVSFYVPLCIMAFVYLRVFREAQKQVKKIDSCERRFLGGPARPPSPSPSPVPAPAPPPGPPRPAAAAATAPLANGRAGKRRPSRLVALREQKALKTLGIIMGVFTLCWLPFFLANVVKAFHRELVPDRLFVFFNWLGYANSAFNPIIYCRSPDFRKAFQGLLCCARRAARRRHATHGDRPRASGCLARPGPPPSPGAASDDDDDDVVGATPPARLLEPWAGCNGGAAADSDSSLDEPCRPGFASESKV
Structure (SMILES),% Inhibition [1] [%],inhibition at 10 µM [2] [%],inhibition at 10 µM [5] [%],inhibition at 10 µM [7] [%],inhibition at 10 µM [8] [%],% Inhibition [9] [%],inhibition at 10 µM [10] [%],Inhibition % [11] [%],% Inhibition [12] [%],inhibition at 10 µM [16] [%],% Inhibition [17] [%],Inhibition % [18] [%],inhibition at 10 µM [19] [%],inhibition at 10 µM [21] [%],inhibition at 10 µM [22] [%],Inhibition % [23] [%],inhibition at 10 µM [24] [%],inhibition at 10 µM [28] [%],inhibition at 10 µM [29] [%],inhibition at 10 µM [30] [%],further results
"CC(=O)[C@H]1CC[C@H]2[C@@H]3CC=C4C[C@@H](O)CC[C@]4(C)[C@H]3CC[C@]12C [pregnenolone, reference compound]",−23,-15,-19,10,9,9,11,26,2,> 80,−3,> 40,-9,24,4,4,-9,11,-11,-25,"inhibition at 10 µM ([3]; M4, 10 μM, read-out: % Inhibition): -4%; inhibition at 10 µM [4]: 10%; inhibition at 10 µM ([6]; norepinephrine transporter, 10 μM, read-out: % Inhibition): -12%; inhibition at 10 µM [13]: 4%; inhibition at 10 µM [14]: 11%; inhibition at 10 µM [15]: -28%; Inhibition % ([16]; 10 μM): 87%; Inhibition % ([18]; listed as PREG): −43%; inhibition at 10 µM [20]: 11%; inhibition at 10 µM [25]: 12%; inhibition at 10 µM ([26]; M3, 10 μM, read-out: % Inhibition): 2%; inhibition at 10 µM ([27]; 5-HT trans., 10 μM, read-out: % Inhibition): 1%"
"CC(=O)[C@@]1(C)CC[C@H]2[C@@H]3CC=C4C[C@@H](OCc5ccccc5)CC[C@]4(C)[C@H]3CC[C@@]21C [3Bn17MeP, 3β-benzyloxy, 17α-methyl-pregn-5-en-20-one]",−15,-10,-13,0,12,−3,7,9,2,20,−2,−16,-6,19,-12,4,0,1,-32,-27,inhibition at 10 µM [3]: 2%; % Inhibition ([4]; 10 μM): 2%; inhibition at 10 µM [6]: -1%; % Inhibition ([13]; 10 μM): 7%; % Inhibition ([14]; 10 μM): 2%; % Inhibition ([15]; 10 μM): −15%; % Inhibition ([20]; 10 μM): 8%; % Inhibition ([25]; 10 μM): 25%; inhibition at 10 µM [26]: 16%; inhibition at 10 µM [27]: 1%
